# Laboratory results taken from US20090181898A1, “ABUSE-RESISTANT A[…]” (SHIRE LLC, priority 2002, published 2009).
# Marks after values point to notes of the source that are not given here.
# Key:
# [1] = Oral PK study at a high dose (60 mg/kg), 8 h time course; settings: rat; for Mean plasma amphetamine concentration: high dose 60 mg/kg
# [2] = Intranasal bioavailability of L-lysine-d-amphetamine vs amphetamine (ELISA); settings: rat, 3 mg/kg
substance,measurement,setting,value
d-amphetamine,AUC of d-amphetamine,[1]; 60 mg/kg,13420 ng·h/mL
same,Animals that died or were sacrificed due to acute symptoms of toxicity,[1]; 60 mg/kg,8 of 12
same,Cmax of d-amphetamine,[1]; 60 mg/kg,3623 ng/mL
same,Mean Peak of d-amphetamine,[1]; 60 mg/kg,2973 ng/mL
same,"Mean Peak, Percent d-Amp",[1]; 60 mg/kg,100%
same,Mean plasma amphetamine concentration,[1]; 0.5 h,2643 ng/mL
same,Mean plasma amphetamine concentration,[1]; 1 h,2828 ng/mL
same,Mean plasma amphetamine concentration,[1]; 3 h (d-amphetamine n = 2),2944* ng/ml
same,Mean plasma amphetamine concentration,[1]; 5 h (d-amphetamine n = 2),153* ng/ml
same,Mean plasma amphetamine concentration,[1]; 8 h (d-amphetamine n = 1),1309** ng/ml
same,AUC (0-[…]) of d-amphetamine,[2]; hydrochloride salt study,727 ng·h/mL
same,Cmax of d-amphetamine,[2]; hydrochloride salt study,"1,377 ng/ml"
same,AUC (0-1.0 h) of d-amphetamine,[2]; mesylate salt study,573 ng·h/mL
same,Cmax of d-amphetamine,[2]; mesylate salt study,1114 ng/mL
